Test results: patent publication US8883782B2, “Spiro-tetracyclic ring compounds as beta-secretase modulators and methods of use” (Amgen Inc., priority 2010, dated 2014)
Read-outs that look alike come from different tables or passages of the source.

Key:
[1] = system: Aβ40 in conditioned medium of cells stably expressing Amyloid Precursor Protein (APP); assay: In vitro BACE cell-based assay (Aβ40 in conditioned medium, sandwich ELISA)
Method in brief: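 Secreted Aβ40 is captured with pAb40 and detected with biotinylated 6E10, read by europium time-resolved fluorescence. IC50 comes from percent inhibition versus concentration.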

[2] = target: Beta Secretase enzyme (BACE) (Homo sapiens, UniProt P56817); assay: In vitro enzymatic BACE FRET (fluorescence resonance energy transfer) assay; format: biochemical
Method in brief: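 Enzyme activity was measured at pH 4.2 (0.05 M acetate, 10% DMSO final, 100 uM genapol) by cleavage of a 50 nM quenched fluorogenic peptide. After one hour, Tris was added to neutralise the pH and fluorescence was recorded.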

[3] = Homo sapiens, HEK293, average IC50, read-out: HEK cell assay
[4] = average IC50, enzyme assay, read-out: BACE 1 FRET assay
[5] = Homo sapiens, HEK293, average IC50, HEK cells, read-out: HEK cell assay

Beta Secretase enzyme (BACE), sequence (P56817 46-501, species assumed): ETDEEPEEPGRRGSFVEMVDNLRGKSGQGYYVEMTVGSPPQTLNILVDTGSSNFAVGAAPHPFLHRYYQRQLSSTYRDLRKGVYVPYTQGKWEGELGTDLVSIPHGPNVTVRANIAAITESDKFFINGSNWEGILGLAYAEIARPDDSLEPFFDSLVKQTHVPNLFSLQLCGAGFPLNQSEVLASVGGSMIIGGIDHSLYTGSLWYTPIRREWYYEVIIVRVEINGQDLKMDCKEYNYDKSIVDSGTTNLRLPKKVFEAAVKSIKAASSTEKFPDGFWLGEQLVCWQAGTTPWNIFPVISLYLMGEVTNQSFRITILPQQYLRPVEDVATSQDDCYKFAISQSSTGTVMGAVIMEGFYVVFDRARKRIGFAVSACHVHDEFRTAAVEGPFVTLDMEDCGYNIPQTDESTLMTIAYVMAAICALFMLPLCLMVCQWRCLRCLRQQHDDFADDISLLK

Compound | IC50 [1, 3] | IC50 [2, 4] | IC50 [1, 5] | further results
NC1=N[C@@]2(CO1)c1cc(-c3cccc(Cl)c3)ccc1Oc1ncc(C3=CCCOC3)cc12 [Example 173, (5S)-7-(3-chlorophenyl)-3-(5,6-dihydro-2H-pyran-3-yl)spiro[chromeno[2,3-b]pyridine-5,4′-[1,3]oxazol]-2′-amine] | 0.005 µM | 0.0006 µM |  | 
NC1=N[C@@]2(CO1)c1cc(C#CC3CC3)ccc1Oc1cnc(C3=CCOCC3)cc12 [Example 159, (5S)-7-(cyclopropylethynyl)-3-(3,6-dihydro-2H-pyran-4-yl)spiro[chromeno[2,3-c]pyridine-5,4′-[1,3]oxazol]-2′-amine] | 0.084 µM | 0.0049 µM |  | 
COc1ccc(F)c(-c2ccc3c(c2)[C@@]2(COC(N)=N2)c2cc(C4=CCOCC4)cnc2O3)c1 [Example 323, (5S)-3-(3,6-dihydro-2H-pyran-4-yl)-7-(2-fluoro-5-methoxyphenyl)spiro[chromeno[2,3-b]pyridine-5,4′-[1,3]oxazol]-2′-amine] | 0.0155 µM | 0.0014 µM |  | 
CC1(C#Cc2cnc3c(c2)[C@]2(COC(N)=N2)c2c(ccc(-c4cncnc4)c2F)O3)COC1 [Example 344, (5R)-6-fluoro-3-((3-methyl-3-oxetanyl)ethynyl)-7-(5-pyrimidinyl)spiro[chromeno[2,3-b]pyridine-5,4′-[1,3]oxazol]-2′-amine] | 0.0065 µM | 0.001 µM |  | 
(5R)-7-bromo-3-fluoro-1-methoxyspiro[chromeno[2,3-c]pyridine-5,4′-[1,3]oxazol]-2′-amine, (5S)-7-bromo-3-fluoro-1-methoxyspiro[chromeno[2,3-c]pyridine-5,4′-[1,3]oxazol]-2′-amine [Example 846] |  | 0.0014 µM |  | IC50 ([1]; average IC50, read-out: HEK cell assay): 0.014 µM
Cc1cnc(F)c(-c2ccc3c(c2)[C@@]2(COC(N)=N2)c2cc(C4=CCOCC4)ccc2O3)c1 [Example 191, (4R)-2′-(3,6-dihydro-2H-pyran-4-yl)-7′-(2-fluoro-5-methyl-3-pyridinyl)spiro[1,3-oxazole-4,9′-xanthen]-2-amine] | 0.0356 µM | 0.0056 µM |  | 
NC1=N[C@@]2(CO1)c1cc(-c3cccnc3F)ccc1Oc1cc(F)c(C3CCOCC3)cc12 [Example 334, (4S)-3′-fluoro-7′-(2-fluoro-3-pyridinyl)-2′-(tetrahydro-2H-pyran-4-yl)spiro[1,3-oxazole-4,9′-xanthen]-2-amine] | 0.0676 µM | 0.0189 µM |  | 
NC1=NC2(CO1)c1cc(-c3cccnc3F)ccc1Oc1nc(F)c(C3=CCOCC3)cc12 (stereo not shown) [Example 150, 3-(3,6-dihydro-2H-pyran-4-yl)-2-fluoro-7-(2-fluoro-3-pyridinyl)spiro[chromeno[2,3-b]pyridine-5,4′-[1,3]oxazol]-2′-amine] | 0.0482 µM | 0.0026 µM |  | 
NC1=N[C@@]2(CO1)c1cc(-c3ccc(F)nc3)ccc1Oc1cnc(C3CCOCC3)cc12 [Example 363, (5S)-7-(6-fluoro-3-pyridinyl)-3-(tetrahydro-2H-pyran-4-yl)spiro[chromeno[2,3-c]pyridine-5,4′-[1,3]oxazol]-2′-amine] | 0.27 µM | 0.0337 µM |  | 
COc1ccc(-c2cc3c(cn2)Oc2ccc(-c4cccnc4F)cc2[C@@]32COC(N)=N2)cc1F [Example 533, (5S)-3-(3-fluoro-4-methoxyphenyl)-7-(2-fluoro-3-pyridinyl)spiro[chromeno[2,3-c]pyridine-5,4′-[1,3]oxazol]-2′-amine] |  |  |  | IC50 ([1]; Homo sapiens, HEK293, read-out: HEK cell assay (uM), average IC50, HEK cells): 0.0235 µM; IC50 ([2]; BACE 1 FRET assay (uM)): 0.0014 µM
NC1=N[C@@]2(CO1)c1cc(-c3cccnc3F)ccc1Oc1cc(F)c(-c3ccncc3)cc12 [Example 321, (4S)-3′-fluoro-7′-(2-fluoro-3-pyridinyl)-2′-(4-pyridinyl)spiro[1,3-oxazole-4,9′-xanthen]-2-amine] | 0.0615 µM | 0.0203 µM |  | 
CC(C)(O)CCc1ccc2c(c1)[C@]1(COC(N)=N1)c1cc(-c3cncnc3)c(F)cc1O2 [Example 96, (R)-4-(2-amino-3′-fluoro-2′-(pyrimidin-5-yl)-5H-spiro[oxazole-4,9′-xanthene]-7′-yl)-2-methylbutan-2-ol] | 0.0228 µM | 0.0107 µM |  | 

Second part, led by results:

IC50 [1, 3] | IC50 [2, 4] | IC50 [1, 5] | Compound | further results
0.005 µM | 0.0004 µM |  | NC1=N[C@@]2(CS1)c1cc(-c3cccnc3F)ccc1Oc1c(F)cc(N3CC4CC3CO4)cc12 (stereo partly drawn) [Example 1078, (4S)-4′-fluoro-7′-(2-fluoro-3-pyridinyl)-2′-(2-oxa-5-azabicyclo[2.2.1]hept-5-yl)spiro[1,3-thiazole-4,9′-xanthen]-2-amine] | 
0.609 µM | 0.0339 µM |  | Cc1ccnc(Oc2ccc3c(c2)[C@@]2(COC(N)=N2)c2cc(N4CCOCC4)cc(F)c2O3)c1 [Example 1059, (4S)-4′-fluoro-7′-((4-methyl-2-pyridinyl)oxy)-2′-(4-morpholinyl)spiro[1,3-oxazole-4,9′-xanthen]-2-amine] | 
 | 0.0076 µM | 0.0297 µM | CC(C)(C)COc1ccc2c(c1)[C@@]1(COC(N)=N1)c1cc(C3=CCOC(C)(C)C3)cnc1O2 [Example 504, (5S)-3-(2,2-dimethyl-3,6-dihydro-2H-pyran-4-yl)-7-(2,2-dimethylpropoxy)spiro[chromeno[2,3-b]pyridine-5,4′-[1,3]oxazol]-2′-amine] | 
 | 0.0034 µM | 0.0223 µM | CC1(C)CCCN(c2cnc3c(c2)[C@]2(COC(N)=N2)c2cc(-c4cccnc4F)ccc2O3)C1 [Example 483, (5S)-3-(3,3-dimethyl-1-piperidinyl)-7-(2-fluoro-3-pyridinyl)spiro[chromeno[2,3-b]pyridine-5,4′-[1,3]oxazol]-2′-amine] | 
0.002 µM | 0.0005 µM |  | CC#Cc1cncc(-c2ccc3c(c2)[C@@]2(CSC(N)=N2)c2cc(C4=CCOCC4)cnc2O3)c1 [Example 772, (5S)-3-(3,6-dihydro-2H-pyran-4-yl)-7-(5-(1-propyn-1-yl)-3-pyridinyl)spiro[chromeno[2,3-b]pyridine-5,4′-[1,3]thiazol]-2′-amine] | 
0.01 µM | 0.0006 µM |  | NC1=N[C@@]2(CS1)c1cc(-c3cccnc3F)ccc1Oc1c(F)cc(N3CCOCC3)cc12 [Example 1069, (4S)-4′-fluoro-7′-(2-fluoro-3-pyridinyl)-2′-(4-morpholinyl)spiro[1,3-thiazole-4,9′-xanthen]-2-amine] | 
0.338 µM | 0.002 µM |  | CC1(C#Cc2cnc3c(c2)[C@]2(CSC(N)=N2)c2cc(-c4cccc(C#N)c4F)ccc2O3)COC1 [Example 780, 3-((5S)-2′-amino-3-((3-methyl-3-oxetanyl)ethynyl)spiro[chromeno[2,3-b]pyridine-5,4′-[1,3]thiazol]-7-yl)-2-fluorobenzonitrile] | 
 | 0.0008 µM | 0.0056 µM | NC1=N[C@@]2(CO1)c1cc(-c3cncc(F)c3)ccc1Oc1cnc(N3CCC(F)(F)C3)cc12 [Example 413, (5S)-3-(3,3-difluoro-1-pyrrolidinyl)-7-(5-fluoro-3-pyridinyl)spiro[chromeno[2,3-c]pyridine-5,4′-[1,3]oxazol]-2′-amine] | 
 | 0.0009 µM | 0.009 µM | CC1(C)C=C(c2cnc3c(c2)[C@]2(CSC(N)=N2)c2cc(-c4cncnc4)ccc2O3)CCO1 [Example 670, (5S)-3-(6,6-dimethyl-3,6-dihydro-2H-pyran-4-yl)-7-(5-pyrimidinyl)spiro[chromeno[2,3-b]pyridine-5,4′-[1,3]thiazol]-2′-amine] | 
 | 0.0034 µM | 0.0807 µM | Cc1cc(-c2ccc3c(c2)[C@@]2(COC(N)=N2)c2cc(C4=CCOCC4)ncc2O3)ccc1F [Example 551, (5S)-3-(3,6-dihydro-2H-pyran-4-yl)-7-(4-fluoro-3-methylphenyl)spiro[chromeno[2,3-c]pyridine-5,4′-[1,3]oxazol]-2′-amine] | 
1.08 µM | 0.116 µM |  | NC1=N[C@@]2(CO1)c1cc(OCc3cccnc3)ccc1Oc1ncc(-c3cccnc3)cc12 [Example 975, (5S)-3-(3-pyridinyl)-7-(3-pyridinylmethoxy)spiro[chromeno[2,3-b]pyridine-5,4′-[1,3]oxazol]-2′-amine] | 
0.117 µM | 0.0135 µM |  | NC1=N[C@]2(CO1)c1cc(C3=CCOCC3)cc(F)c1Oc1ccc(-c3cncnc3)c(F)c12 [Example 1042, (4R)-7′-(3,6-dihydro-2H-pyran-4-yl)-1′,5′-difluoro-2′-(5-pyrimidinyl)spiro[1,3-oxazole-4,9′-xanthen]-2-amine] | 
 | 0.0045 µM | 0.052 µM | CCc1cc2c(c(F)n1)Oc1ccc(-c3cncc(F)c3)cc1[C@@]21COC(N)=N1 [Example 850, (5S)-3-ethyl-1-fluoro-7-(5-fluoro-3-pyridinyl)spiro[chromeno[2,3-c]pyridine-5,4′-[1,3]oxazol]-2′-amine] | 
 | 0.0041 µM | 0.032 µM | CC1(C#Cc2cc(F)c3c(c2)[C@]2(COC(N)=N2)c2cc(-c4ccc(F)nc4)ccc2O3)COC1 [Example 598] | 
 | 0.0003 µM | 0.003 µM | CC#Cc1cnc(F)c(-c2ccc3c(c2)[C@@]2(COC(N)=N2)c2cc(-c4cnn(C)c4)cnc2O3)c1 [Example 954, (5S)-7-(2-fluoro-5-(1-propyn-1-yl)-3-pyridinyl)-3-(1-methyl-1H-pyrazol-4-yl)spiro[chromeno[2,3-b]pyridine-5,4′-[1,3]oxazol]-2′-amine] | 
 | 0.0028 µM |  | CC1(C)C[C@H](c2cnc3c(c2)[C@]2(COC(N)=N2)c2cc(-c4cccnc4F)ccc2O3)CCO1 [Example 469, (5S)-3-((4R)-2,2-dimethyltetrahydro-2H-pyran-4-yl)-7-(2-fluoro-3-pyridinyl)spiro[chromeno[2,3-b]pyridine-5,4′-[1,3]oxazol]-2′-amine] | IC50 ([1]; average IC50, HEK cells, read-out: HEK cell assay): 0.0139 µM
 | 0.009 µM | 0.251 µM | COc1cc(F)c2c(c1)[C@]1(CSC(N)=N1)c1cc(-c3cccnc3)ccc1O2 [Example 650, (4S)-4′-fluoro-2′-methoxy-7′-(3-pyridinyl)spiro[1,3-thiazole-4,9′-xanthen]-2-amine] | 
